ChEMBL document CHEMBL1201862, “PubChem BioAssay data set” (2004)
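Values below derive from 48-hour exposures of cells grown in 96-well plates, with endpoints linearly interpolated between the two concentrations bracketing the appropriate inhibition level. Abbreviation: GI50, concentration required for 50% inhibition of growth.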 Active and inactive are the calls of the source. Rule as the data show it: active = GI50 up to about 1.1 µM and inactive = higher.

Columns and labels:
Test in all cases: inhibition of tumour cell growth, NCI panel, 48 h
M14 = system: M14
SF-539 = system: SF-539
KM12 = system: KM12
SF-268 = system: SF-268
HCT-15 = system: HCT-15
CAKI-1 = system: CAKI-1
MDA-N = system: MDA-N
TK-10 = system: TK-10
PC-3 = system: PC-3
HL-60 = system: HL-60
SR = system: SR
BT-549 = system: BT-549
HT-29 = system: HT-29
SK-MEL-2 = system: SK-MEL-2
A549 = system: A549
Hs-578T = system: Hs-578T
MDA-MB-231 = system: MDA-MB-231
OVCAR-5 = system: OVCAR-5
HOP-92 = system: HOP-92
SF-295 = system: SF-295

**Q.** For `CSc1[nH]nc(N)c1C(=O)Nc1ccc(Cl)cc1`, which GI50 (M14) is on record?
**A.** 68.9 µM (inactive)

**Q.** What about the GI50 (SF-539) of the same compound?
**A.** 66.2 µM (inactive)

**Q.** And the GI50 (KM12)?
**A.** 55.6 µM (inactive)

**Q.** What about the GI50 (SF-268) of the same compound?
**A.** 79.6 µM (inactive)

**Q.** What about the GI50 (HCT-15) of the same compound?
**A.** 46.2 µM

**Q.** And the GI50 (CAKI-1)?
**A.** 46.2 µM (inactive)

**Q.** What about the GI50 (MDA-N) of the same compound?
**A.** > 100 µM (inactive)

**Q.** What about the GI50 (TK-10) of the same compound?
**A.** 47.2 µM (inactive)

**Q.** And the GI50 (PC-3)?
**A.** 55.5 µM (inactive)

**Q.** And the GI50 (HL-60)?
**A.** 34.8 µM (inactive)

**Q.** And the GI50 (SR)?
**A.** 35.3 µM (inactive)

**Q.** And the GI50 (BT-549)?
**A.** 89.7 µM (inactive)

**Q.** And the GI50 (HT-29)?
**A.** 41.5 µM (inactive)

**Q.** What about the GI50 (SK-MEL-2) of the same compound?
**A.** > 100 µM (inactive)

**Q.** And the GI50 (A549)?
**A.** 48.4 µM (inactive)

**Q.** And the GI50 (Hs-578T)?
**A.** > 100 µM (inactive)

**Q.** What about the GI50 (MDA-MB-231) of the same compound?
**A.** > 100 µM (inactive)

**Q.** What about the GI50 (OVCAR-5) of the same compound?
**A.** > 100 µM (inactive)

**Q.** `C[C@@]12c3c4ccc(C=O)c3Oc3ccc(C=O)c(c31)Oc1c(C=O)ccc(c12)O4` was tested. Which GI50 (M14) did it give?
**A.** > 100 µM (inactive)

**Q.** And the GI50 (SF-539)?
**A.** > 100 µM (inactive)

**Q.** And the GI50 (KM12)?
**A.** > 100 µM (inactive)

**Q.** What about the GI50 (SF-268) of the same compound?
**A.** > 100 µM (inactive)

**Q.** What about the GI50 (HCT-15) of the same compound?
**A.** > 100 µM

**Q.** What about the GI50 (HOP-92) of the same compound?
**A.** 0.565 µM (active)

**Q.** And the GI50 (MDA-N)?
**A.** > 100 µM (inactive)

**Q.** And the GI50 (TK-10)?
**A.** > 100 µM (inactive)

**Q.** What about the GI50 (PC-3) of the same compound?
**A.** > 100 µM (inactive)

**Q.** What about the GI50 (SF-295) of the same compound?
**A.** > 100 µM (inactive)

**Q.** And the GI50 (SR)?
**A.** 2.96 µM (inactive)

**Q.** And the GI50 (BT-549)?
**A.** > 100 µM (inactive)

**Q.** And the GI50 (HT-29)?
**A.** > 100 µM (inactive)

**Q.** What about the GI50 (SK-MEL-2) of the same compound?
**A.** > 100 µM (inactive)

**Q.** And the GI50 (A549)?
**A.** > 100 µM (inactive)

**Q.** And the GI50 (Hs-578T)?
**A.** > 100 µM (inactive)

**Q.** And the GI50 (MDA-MB-231)?
**A.** > 100 µM (inactive)

**Q.** And the GI50 (OVCAR-5)?
**A.** > 100 µM (inactive)

**Q.** What does the source list for `CC(=O)Nn1cnc(C(=N)C#N)c1N`?
**A.** GI50 (M14): > 100 µM (inactive); GI50 (SF-539): > 100 µM (inactive); GI50 (KM12): > 100 µM (inactive); GI50 (SF-268): > 100 µM (inactive); GI50 (HCT-15): > 100 µM; GI50 (CAKI-1): > 100 µM (inactive); GI50 (MDA-N): > 100 µM (inactive); GI50 (TK-10): > 100 µM (inactive); GI50 (PC-3): > 100 µM (inactive); GI50 (SF-295): > 100 µM (inactive); GI50 (HL-60): > 100 µM (inactive); GI50 (SR): > 100 µM (inactive); GI50 (BT-549): > 100 µM (inactive); GI50 (HT-29): > 100 µM (inactive); GI50 (SK-MEL-2): > 100 µM (inactive); GI50 (A549): > 100 µM (inactive); GI50 (Hs-578T): > 100 µM (inactive); GI50 (MDA-MB-231): > 100 µM (inactive); GI50 (OVCAR-5): > 100 µM (inactive)

**Q.** Which results are given for `COc1ccc(/C(=N/OCCCC(=O)O)c2cccs2)cc1`?
**A.** GI50 (SF-539): > 100 µM (inactive); GI50 (KM12): > 100 µM (inactive); GI50 (SF-268): > 100 µM (inactive); GI50 (HCT-15): > 100 µM; GI50 (HOP-92): > 100 µM (inactive); GI50 (CAKI-1): > 100 µM (inactive); GI50 (MDA-N): > 100 µM (inactive); GI50 (TK-10): > 100 µM (inactive); GI50 (PC-3): > 100 µM (inactive); GI50 (SF-295): > 100 µM (inactive); GI50 (HL-60): > 100 µM (inactive); GI50 (BT-549): > 100 µM (inactive); GI50 (HT-29): > 100 µM (inactive); GI50 (SK-MEL-2): > 100 µM (inactive); GI50 (A549): > 100 µM (inactive); GI50 (Hs-578T): > 100 µM (inactive); GI50 (MDA-MB-231): > 100 µM (inactive); GI50 (OVCAR-5): > 100 µM (inactive)

**Q.** `COc1ccc(C(OCC2OC(n3ccc(NC(=O)c4ccccc4)nc3=O)CC2OP2(=S)SCCS2)(c2ccccc2)c2ccc(OC)cc2)cc1` (stereo unspecified) was tested. Which GI50 (M14) did it give?
**A.** 24.9 µM (inactive)

**Q.** What about the GI50 (SF-268) of the same compound?
**A.** 21.2 µM (inactive)

**Q.** What about the GI50 (HCT-15) of the same compound?
**A.** 33.5 µM

**Q.** And the GI50 (MDA-N)?
**A.** > 10 µM (inactive)

**Q.** What about the GI50 (TK-10) of the same compound?
**A.** > 100 µM (inactive)

**Q.** And the GI50 (PC-3)?
**A.** 17.8 µM (inactive)

**Q.** And the GI50 (SF-295)?
**A.** 30.7 µM (inactive)

**Q.** And the GI50 (SR)?
**A.** 48.1 µM (inactive)

**Q.** What about the GI50 (BT-549) of the same compound?
**A.** 25.9 µM (inactive)

**Q.** And the GI50 (HT-29)?
**A.** 24.7 µM (inactive)

**Q.** And the GI50 (SK-MEL-2)?
**A.** 43.6 µM (inactive)

**Q.** What about the GI50 (A549) of the same compound?
**A.** 56.2 µM (inactive)

**Q.** And the GI50 (Hs-578T)?
**A.** 24.1 µM (inactive)

**Q.** And the GI50 (MDA-MB-231)?
**A.** 31.1 µM (inactive)

**Q.** What about the GI50 (OVCAR-5) of the same compound?
**A.** 36.8 µM (inactive)

**Q.** What does the source list for `CC1(CCOCc2ccccc2)NC(=O)NC1=O` (stereo unspecified)?
**A.** GI50 (M14): > 100 µM (inactive); GI50 (KM12): > 100 µM (inactive); GI50 (SF-268): > 100 µM (inactive); GI50 (HCT-15): > 100 µM; GI50 (HOP-92): > 100 µM (inactive); GI50 (CAKI-1): > 100 µM (inactive); GI50 (MDA-N): > 100 µM (inactive); GI50 (TK-10): > 100 µM (inactive); GI50 (PC-3): > 100 µM (inactive); GI50 (SF-295): > 100 µM (inactive); GI50 (SR): > 100 µM (inactive); GI50 (BT-549): > 100 µM (inactive); GI50 (HT-29): > 100 µM (inactive); GI50 (SK-MEL-2): > 100 µM (inactive); GI50 (A549): > 100 µM (inactive); GI50 (Hs-578T): > 100 µM (inactive); GI50 (MDA-MB-231): > 100 µM (inactive); GI50 (OVCAR-5): > 100 µM (inactive)

**Q.** Which results are given for `C[C@@]12C[C@@H](c3ccccc3O1)N1Cc3ccccc3CSC1=N2`?
**A.** GI50 (M14): 90.4 µM (inactive); GI50 (SF-539): 51.5 µM (inactive); GI50 (KM12): > 100 µM (inactive); GI50 (SF-268): > 100 µM (inactive); GI50 (HCT-15): 37.3 µM; GI50 (HOP-92): > 100 µM (inactive); GI50 (CAKI-1): > 100 µM (inactive); GI50 (MDA-N): 93.5 µM (inactive); GI50 (TK-10): 57.7 µM (inactive); GI50 (PC-3): 83.6 µM (inactive); GI50 (SF-295): > 100 µM (inactive); GI50 (SR): > 100 µM (inactive); GI50 (BT-549): 95.9 µM (inactive); GI50 (HT-29): 38.3 µM (inactive); GI50 (SK-MEL-2): > 100 µM (inactive); GI50 (Hs-578T): > 100 µM (inactive); GI50 (MDA-MB-231): > 100 µM (inactive); GI50 (OVCAR-5): > 100 µM (inactive)

**Q.** With `CC(C)(C)c1ccc(O)c(C(O)c2ccccn2)c1` (stereo unspecified) as the compound, how does the GI50 (SF-539) read?
**A.** > 100 µM (inactive)

**Q.** What about the GI50 (KM12) of the same compound?
**A.** 94 µM (inactive)

**Q.** And the GI50 (SF-268)?
**A.** > 100 µM (inactive)

**Q.** And the GI50 (HCT-15)?
**A.** 35.4 µM

**Q.** What about the GI50 (CAKI-1) of the same compound?
**A.** > 100 µM (inactive)

**Q.** And the GI50 (MDA-N)?
**A.** > 100 µM (inactive)

**Q.** And the GI50 (TK-10)?
**A.** > 100 µM (inactive)

**Q.** What about the GI50 (PC-3) of the same compound?
**A.** 86.1 µM (inactive)

**Q.** What about the GI50 (SF-295) of the same compound?
**A.** 57.5 µM (inactive)

**Q.** And the GI50 (HL-60)?
**A.** 45.1 µM (inactive)

**Q.** And the GI50 (SR)?
**A.** 70.1 µM (inactive)

**Q.** And the GI50 (BT-549)?
**A.** > 100 µM (inactive)

**Q.** What about the GI50 (HT-29) of the same compound?
**A.** > 100 µM (inactive)

**Q.** What about the GI50 (A549) of the same compound?
**A.** 98.2 µM (inactive)

**Q.** What about the GI50 (Hs-578T) of the same compound?
**A.** 91.2 µM (inactive)

**Q.** And the GI50 (MDA-MB-231)?
**A.** > 100 µM (inactive)

**Q.** And the GI50 (OVCAR-5)?
**A.** 31.5 µM (inactive)
